Test results from US20040167097A1, “EPO D + 5-FU/gemcitabine” (priority 2002, published 2004).
Where two headings read alike, the source gives them in different places.

What was measured:
[1] = system: tumor; details: mice; Chou, et al. 2001; cited from earlier work
[2] = system: paclitaxel-sensitive and paclitaxel-resistant cell lines and xenographs; details: cited from earlier work
[3] = Pharmacokinetics after infusion; format: in vivo
Text: In general, the pharmacokinetics are favorable. […] This is somewhat higher on average than the values for paclitaxel which are 140±70 l.

[4] = system: thymidine phosphorylase; assay: Production of thymidine phosphorylase in tumor cells; format: cell-based; details: some tumor cells; preliminary experiments
Protocol: The data from each of the combination analyses was analyzed using [sequence] software (Biosoft, Cambridge, UK), which determined a combination index (“CI”) value for each combination in each of the three cell lines examined.

[5] = comparison value for paclitaxel; cited from earlier work

SMILES | antitumor effects [1] | antitumor efficacy [2] | dependence of AUC on dosage ([3]; from 9 to 150 mg/m^2) | dose dependence of pharmacokinetics ([3]; in vivo) | pharmacokinetic parameters, second infusion as compared to first infusion ([3]; in vivo) | half-life, mean value ([3]; infusion) [h] | volume of distribution (Vz) ([3]; infusion) [L] | production of thymidine phosphorylase [4] | volume of distribution (Vz) [5] [L]
C/C1=C/C[C@@H](/C(C)=C/c2csc(C)n2)OC(=O)C[C@H](O)C(C)(C)C(=O)[C@H](C)[C@@H](O)[C@@H](C)CCC1 [epothilone D, 12,13-deoxyepothilone B] | dramatic antitumor effects | has antitumor efficacy | linear | not dose-dependent | do not change | 9.6 ± 2.2 | 172 ± 74 | upregulate | –
CC(=O)O[C@H]1C(=O)[C@@]2(C)[C@H]([C@H](OC(=O)c3ccccc3)[C@]3(O)C[C@H](OC(=O)[C@H](O)[C@@H](NC(=O)c4ccccc4)c4ccccc4)C(C)=C1C3(C)C)[C@]1(OC(C)=O)CO[C@@H]1C[C@@H]2O [paclitaxel] | – | – | – | – | – | – | – | – | 140 ± 70
